Like-named read-outs stand apart in the source and are kept apart here.
Conditions: ester bond, DCM

In the case of CCn1c(-c2cc(N3CCN(C4CC4)CC3)cnc2[C@H](C)OC)c2c3cc(ccc31)-c1nnc(o1)C[C@H](NC(=O)OCc1ccccc1)C(=O)N1N[C@H](C(=O)OCC(C)(C)C2)C2CC1C2, the ring closure, yield of all isomers (from CCn1c(-c2cc(N3CCN(C4CC4)CC3)cnc2[C@H](C)OC)c(CC(C)(C)CO)c2cc(-c3nnc(C[C@H](NC(=O)OCc4ccccc4)C(=O)N4N[C@H](C(=O)O)C5CC4C5)o3)ccc21, PyBOP, DMAP, 6.64 mM, 25.0 °C, 16.0 h, 2 steps) is reported as 29%.
In the case of CCn1c(-c2cc(N3CCN(C(=O)OCc4ccccc4)CC3)cnc2[C@H](C)OC)c2c3cc(ccc31)-c1cccc(c1)C[C@H](NC(=O)OC(C)(C)C)C(=O)N1N[C@H](C(=O)OCC(C)(C)C2)C2CC1C2, the ring closure, yield of all isomers (from CCn1c(-c2cc(N3CCN(C(=O)OCc4ccccc4)CC3)cnc2[C@H](C)OC)c(CC(C)(C)CO)c2cc(-c3cccc(C[C@H](NC(=O)OC(C)(C)C)C(=O)N4N[C@H](C(=O)O)C5CC4C5)c3)ccc21, EDCI/HOBt/DIEA, 6.0 mM, 25.0 °C, 16.0 h) is reported as 27%.
Work on CCn1c(-c2cc(N3CCN(C(=O)OCc4ccccc4)CC3)cnc2[C@H](C)OC)c2c3cc(ccc31)-c1csc(n1)C[C@H](NC(=O)OC(C)(C)C)C(=O)N1N[C@@H](C(=O)OCC(C)(C)C2)C2CC1C2 yielded a ring closure, yield of all isomers (from CCn1c(-c2cc(N3CCN(C(=O)OCc4ccccc4)CC3)cnc2[C@H](C)OC)c(CC(C)(C)CO)c2cc(-c3csc(C[C@H](NC(=O)OC(C)(C)C)C(=O)N4N[C@@H](C(=O)O)C5CC4C5)n3)ccc21, EDCI/HOBt/DIEA, 5.2 mM, 35.0 °C) of 49%.
With CCn1c(-c2cc(N3CCN(C)CC3)cnc2[C@H](C)OC)c2c3cc(ccc31)-c1csc(n1)C[C@H](NC(=O)OC(C)(C)C)C(=O)N(C)NCC(=O)OCC(C)(C)C2 the ring closure, yield of all isomers (from CCn1c(-c2cc(N3CCN(C)CC3)cnc2[C@H](C)OC)c(CC(C)(C)CO)c2cc(-c3csc(C[C@H](NC(=O)OC(C)(C)C)C(=O)N(C)NCC(=O)O)n3)ccc21, PyBOP/DMAP, 0.81 mM, 0.0 °C, 1.0 h) was 42%.
Work on CCn1c(-c2cccnc2[C@H](C)OC)c2c3cc(ccc31)N1CCO[C@@H](C[C@H](NC(=O)OC(C)(C)C)C(=O)N3N[C@H](C(=O)OCC(C)(C)C2)C2CC3C2)C1 yielded a ring closure, yield of all isomers (from CCn1c(-c2cccnc2[C@H](C)OC)c(CC(C)(C)CO)c2cc(N3CCO[C@@H](C[C@H](NC(=O)OC(C)(C)C)C(=O)N4N[C@H](C(=O)O)C5CC4C5)C3)ccc21, PyBOP, DMAP, 2.6 mM, 25.0 °C, 16.0 h) of 96.2%.
CCn1c(-c2cc(N3CCN(C(=O)OCc4ccccc4)CC3)cnc2[C@H](C)OC)c2c3cc(ccc31)N1CCO[C@@H](C[C@H](NC(=O)OC(C)(C)C)C(=O)N3N[C@H](C(=O)OCC(C)(C)C2)C2CC3C2)C1 gave a ring closure, yield of all isomers (from CCn1c(-c2cc(N3CCN(C(=O)OCc4ccccc4)CC3)cnc2[C@H](C)OC)c(CC(C)(C)CO)c2cc(N3CCO[C@@H](C[C@H](NC(=O)OC(C)(C)C)C(=O)N4N[C@H](C(=O)O)C5CC4C5)C3)ccc21, PyBOP/DMAP, 9.8 mM, 35.0 °C, 0.5 h) of 16%.
In the case of CCn1c(-c2cc(N3CCN(C(=O)OCc4ccccc4)CC3)cnc2[C@H](C)OC)c2c3cc(ccc31)-c1csc(n1)C[C@H](NC(=O)OC(C)(C)C)C(=O)N(C)NCC(=O)OCC(C)(C)C2, the ring closure, yield of all isomers (from CCn1c(-c2cc(N3CCN(C(=O)OCc4ccccc4)CC3)cnc2[C@H](C)OC)c(CC(C)(C)CO)c2cc(-c3csc(C[C@H](NC(=O)OC(C)(C)C)C(=O)N(C)NCC(=O)O)n3)ccc21, EDCI/HOBt/DIEA, 4.25 mM, 25.0 °C, 16.0 h) is reported as 38.2%.
CCn1c(-c2cc(N3CCN(C)CC3)cnc2[C@H](C)OC)c2c3cc(ccc31)-c1csc(n1)C[C@H](NC(=O)OC(C)(C)C)C(=O)N1N[C@H](C(=O)OCC(C)(C)C2)C2CC1C2 showed a ring closure, yield of all isomers (from CCn1c(-c2cc(N3CCN(C)CC3)cnc2[C@H](C)OC)c(CC(C)(C)CO)c2cc(-c3csc(C[C@H](NC(=O)OC(C)(C)C)C(=O)N4N[C@H](C(=O)O)C5CC4C5)n3)ccc21, PyBOP/DMAP, 5.8 mM, 25.0 °C, 5.0 h) of 48.8%.
Work on C=C[C@@H]1CCN2N[C@@H]1C(=O)OCC(C)(C)Cc1c(-c3cc(N4CCN(C(=O)OCc5ccccc5)CC4)cnc3[C@H](C)OC)n(CC)c3ccc(cc13)-c1csc(n1)C[C@H](NC(=O)OC(C)(C)C)C2=O yielded a ring closure, yield of all isomers (from C=C[C@@H]1CCN(C(=O)[C@H](Cc2nc(-c3ccc4c(c3)c(CC(C)(C)CO)c(-c3cc(N5CCN(C(=O)OCc6ccccc6)CC5)cnc3[C@H](C)OC)n4CC)cs2)NC(=O)OC(C)(C)C)N[C@@H]1C(=O)O, EDCI/HOBt/DIEA, 10.0 mM, 25.0 °C, 16.0 h) of 36.7%.
Work on CCn1c(-c2cccnc2[C@H](C)OC)c2c3cc(ccc31)N1CCO[C@@H](C[C@H](NC(=O)OC(C)(C)C)C(=O)N(C)NCC(=O)OCC(C)(C)C2)C1 yielded a ring closure, yield of all isomers (from CCn1c(-c2cccnc2[C@H](C)OC)c(CC(C)(C)CO)c2cc(N3CCO[C@@H](C[C@H](NC(=O)OC(C)(C)C)C(=O)N(C)NCC(=O)O)C3)ccc21, EDCI/HOBt, DIEA, 6.5 mM, 25.0 °C, 16.0 h) of 44%.
For CCn1c(-c2cc(N3CCN(C4CC4)CC3)cnc2[C@H](C)OC)c2c3cc(ccc31)-c1csc(n1)C[C@H](NC(=O)OC(C)(C)C)C(=O)N(C)NCC(=O)OCC(C)(C)C2, the ring closure, yield of all isomers (from CCn1c(-c2cc(N3CCN(C4CC4)CC3)cnc2[C@H](C)OC)c(CC(C)(C)CO)c2cc(-c3csc(C[C@H](NC(=O)OC(C)(C)C)C(=O)N(C)NCC(=O)O)n3)ccc21, PyBOP/DMAP, 5.9 mM, 0.0 °C, 1.0 h) was 27%.
